From paper PMC5517562, “Design and discovery of novel monastrol-1,3,5-triazines as potent anti-breast cancer agent via attenuating Epidermal Growth Factor Receptor tyrosine kinase” (Scientific Reports, 2017)

Key:
MCF-7 (breast cancer) = test: MTT in vitro cytotoxicity assay, MCF-7; type: cell-based, human; details: Homo sapiens, MCF7
Description: The synthesized compounds were evaluated for in-vitro cytotoxic activity against various cell lines such as HeLa (cervical cancer), MCF-7 (breast cancer), HL-60 (Human promyelocytic leukemia), HepG2 (Hepatocellular carcinoma) and MCF 12A (normal epithelial cell) by the MTT assay method. […] The relationship between surviving fraction and drug concentration was plotted to obtain the survival curve of all the cancer cell lines HeLa, MCF-7, HL-60 and HepG2. The response parameter calculated was the IC50 values, which responds to the concentration required for 50% inhibition of cell viability. The in-vitro cytotoxic activity of the synthesized compounds is summarized Table 3.
The target compounds were subjected to in vitro cytotoxicity bioassay. In vitro cytotoxicity was determined using a standard MTT assay with protocol appropriate for the individual test system[29]–[31]. The four human cancer cell lines HeLa, MCF-7, HL-60, HepG2 and MCF-12A were cultured in the MEM medium supplemented with 10% FBS, 1% glutamine and […] gentamicin sulfate in a CO2 incubator in a humidified atmosphere of 5% CO2 and 95% air. The test compounds were prepared prior to the experiment by dissolving in 0.1% DMSO and diluted with medium. The cells were then exposed to different concentrations of drugs ([…]) in the volume of […]. Cells in the control wells received the same volume of medium containing 0.1% DMSO. After 24 h, the medium was removed and cell cultures were incubated with […] MTT reagent (1 mg/ml) for 5 h at 37 °C. The known number of cells ([…]) was incubated in a 5% CO2 incubator at 37 °C in the presence of different concentrations of test compounds. After 48 h of drug incubation, the MTT solution was added in each well and absorbance was recorded at 540 nm by an ELISA reader. The experiment was performed in triplicate. Cell survival was calculated as the percentage of MTT inhibition as % growth inhibition = 100 − (mean OD of individual test Group/Mean OD of each Control Group) × 100.

EGFR-TK = molecular target: T1, EGFR-TK (Homo sapiens, UniProt P00533); test: EGFR tyrosine kinase inhibitory activity (Kinase-Glo Plus luminescence); type: biochemical; details: at 10 µM; read-out: Percent of Inhibition, EGFR tyrosine kinase
T1 construct: 0.2 mg/mL Poly (Glu, Tyr) substrate, 10 mM ATP and EGFR
T1 sequence (P00533 25-1210): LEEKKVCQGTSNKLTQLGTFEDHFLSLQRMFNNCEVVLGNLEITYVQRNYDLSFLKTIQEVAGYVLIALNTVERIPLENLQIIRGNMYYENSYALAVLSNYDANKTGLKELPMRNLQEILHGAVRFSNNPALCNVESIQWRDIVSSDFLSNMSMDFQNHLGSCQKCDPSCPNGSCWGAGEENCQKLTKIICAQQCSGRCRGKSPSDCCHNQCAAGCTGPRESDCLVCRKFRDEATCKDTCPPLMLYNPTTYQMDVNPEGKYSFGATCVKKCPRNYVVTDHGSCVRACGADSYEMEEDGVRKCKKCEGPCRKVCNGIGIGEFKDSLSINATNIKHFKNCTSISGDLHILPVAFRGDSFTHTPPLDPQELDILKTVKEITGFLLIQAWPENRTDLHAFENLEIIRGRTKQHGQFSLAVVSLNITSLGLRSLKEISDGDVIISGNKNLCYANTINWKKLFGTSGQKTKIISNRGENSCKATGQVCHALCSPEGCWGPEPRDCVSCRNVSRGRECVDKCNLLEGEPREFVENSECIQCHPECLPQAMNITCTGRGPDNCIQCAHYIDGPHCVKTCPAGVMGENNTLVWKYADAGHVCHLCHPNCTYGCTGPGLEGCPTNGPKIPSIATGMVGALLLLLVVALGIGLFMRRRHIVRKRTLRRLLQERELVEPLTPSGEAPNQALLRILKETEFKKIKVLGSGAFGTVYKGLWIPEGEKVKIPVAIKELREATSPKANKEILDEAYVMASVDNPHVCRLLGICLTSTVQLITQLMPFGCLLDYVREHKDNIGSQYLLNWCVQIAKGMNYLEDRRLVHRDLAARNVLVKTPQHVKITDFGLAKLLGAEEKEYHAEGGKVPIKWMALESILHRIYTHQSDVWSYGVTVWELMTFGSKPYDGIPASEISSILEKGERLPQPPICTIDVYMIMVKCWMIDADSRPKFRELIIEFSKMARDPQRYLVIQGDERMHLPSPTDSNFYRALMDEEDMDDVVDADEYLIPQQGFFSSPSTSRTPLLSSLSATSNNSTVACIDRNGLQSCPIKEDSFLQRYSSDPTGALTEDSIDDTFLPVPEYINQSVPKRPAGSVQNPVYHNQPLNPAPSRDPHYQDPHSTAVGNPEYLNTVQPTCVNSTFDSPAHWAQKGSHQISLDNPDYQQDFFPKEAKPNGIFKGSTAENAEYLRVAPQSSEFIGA
Description: Kinase activity was determined using Kinase-Glo Plus luminescence kinase assay kit, by quantitating the amount of ATP remaining in the solution of kinase reaction. The luminescent signal is correlated with the residual amount present and it was inversely related with kinase activity. The tested compounds were diluted to 100 mM in 10% DMSO, then […] of the dilution was added to a 50 mL reaction. All of the enzymatic reactions were performed at 30 °C for 40 min, 50 mL of reaction mixture contains 10 mM MgCl2, 40 mM Tris, pH 7.4, 0.1 mg/mL BSA, 0.2 mg/mL Poly (Glu, Tyr) substrate, 10 mM ATP and EGFR. Incubate the plate for 5 min at r.t. then add 50 mL of Kinase-GloPlus Luminescence kinase assay to each reaction. ADP-Glo assay kit is the protein kinase assays used to determine IC50 values in which ADP generation was measured as it leads to an increase in luminescence signal. The reaction mixture was incubated in a 96-well plate at 30 °C for 30 min, after the incubation period add 25 mL of ADP-Glo reagent to terminate the assay. Shake the 96-well plate for 30 min at ambient temperature then incubate it, then add 50 mL of kinase detection reagent. Read the 96-well plate using the ADP-Glo Luminescence reader. All the assay components were added to the blank control except the substrate. By removing the blank control value you can obtain the corrected activity for each protein kinase target.

[1] = test system: DMBA induced mammary tumor; test: DMBA induced mammary tumor in female Sprague-Dawley rats; type: in vivo, rat
From the text: Encouraged by the excellent EGFR-TK inhibitory activity and anticancer effect of compound 7l against breast cancer cells which are further substantiated with docking analysis, prompted us to further analyze the effect of compound 7l in the in-vivo system. Therefore, we have utilized 7,12-Dimethylbenz(a)anthracene (DMBA), a polycyclic aromatic hydrocarbon, to induce the mammary carcinogenesis in the experimental animals to quantify the potential protective effect of compound 7l. The mechanism behind its action to induce the cancer is based on its metabolized product, i.e. the epoxide that readily forms DNA adducts which is responsible for malignant alteration. At the first instance, the effect of compound 7l was analyzed on the effect of body weight of the experimental animals.
Animal model. The female Sprague-Dawley rats (100–120 g) were obtained from the Institutional animal house after approval from the Institutional Animal Ethics Committee. The animals were kept in suitable cages with free access to food and water under a controlled temperature (24 ± 2 °C), humidity (60 ± 10%) with alternate light/dark cycle of 12 h. The entire experimental procedures involving animals were approved by the Institutional Animal Ethics Committees (IAEC) of SHUATS, in accordance and duly approved with CPCSEA (Committee for the Purpose of Control and Supervision of Experiments on Animals, Government of India. The authors confirm that all experiments were performed in accordance with relevant guidelines and regulations of SHUATS.
Initiation of breast carcinogenesis. The mammary carcinogenesis was induced in experimental rat using one-time subcutaneous administration of DMBA (25 mg) in emulsified form with the help of sunflower oil and saline to each rat.
Design of experiment. Experimental design. Total numbers of 30 animals were randomly divided into five groups and each group contains 6 animals. The various groups received different treatment as follows:
The DMBA (s.c.; 25 mg/rat) was administered to each rats near mammary gland at the end of the first week. The test drug was administered once in a day and was continued till the end of the experimental period. At the end of 16th week, the rats were fasted overnight and sacrificed by the cervical decapitation under influence of anesthesia. The blood samples were collected in and after centrifugation, the plasma was used for the further biochemical analysis. The liver and mammary tissues were excised immediately from the experimental rats and homogenized with suitable buffer, centrifuged and the resulting supernatant was used for biochemical estimations.
Biochemical Estimation. The remaining excised liver and mammary tissues were rinsed in ice-cold saline and known amount of the tissue were homogenized in 0.1 M Tris-HCl buffer (pH 7.4) at 4°C. The supernatant was collected as tissue homogenate and was used for the estimation of various biochemical parameters. The microsomal protein concentration was estimated by the method of Lowry et al.[33]; while, the concentration of plasma and mammary TBARS was estimated by the earlier reported method, [35] and the concentration of plasma and mammary tissue LOOH were estimated by the previous method. Moreover, the activity of the antioxidant enzyme system, such as SOD, CAT, GPX, GSH, CYP450, Cyt-b5, GST and GR activity in plasma and mammary tissue were determined by the earlier method given elsewhere[37]–[43].

[2] = DMBA rats, 5, 10, 15 mg/kg once a day
[3] = liver and mammary tissues of DMBA treated animals
[4] = plasma and mammary tissues of DMBA treated animals

## CCOC(=O)C1=C(C)N(c2nc(Nc3cccc(F)c3)nc(Nc3cccc(F)c3)n2)C(=S)NC1c1ccc(F)cc1 (stereo not drawn) [7l, Ethyl 1-(4,6-bis((3-fluorophenyl)amino)-1,3,5-triazin-2-yl)-4-(4-fluorophenyl)-6-methyl-2-thioxo-1,2,3,4-tetrahydropyrimidine-5-carboxylate]
MCF-7 (breast cancer)
  IC50: 41.5 ± 0.31 µM
EGFR-TK
  inhibition at 10 µM: 96.4%
[1]; [2]
  Percentage of tumour incidence: efficient in reducing the percentage of incidence of tumour
  Tumour volume: significant reduction
[1]; DMBA rats, 5, 10, 15 mg/kg once a day, vs DMBA group
  Body weight of experimental animals: significantly improved
[1]; [3]
  Concentration of Phase I enzymes (CYP450 and Cyt-b5): marked decline
  Concentration of Phase II enzymes (GST and GR): significant upsurge
[1]; [4]
  Antioxidant status (SOD, CAT, GSH, GPx): significant improvement
  Level of TBARS and LOOH (lipid peroxidation): significant reduction
